Molecular target: T1, Ubiquitin carboxyl-terminal hydrolase 30 (Homo sapiens, UniProt Q70CQ3)
T1 sequence (Q70CQ3 whole entry): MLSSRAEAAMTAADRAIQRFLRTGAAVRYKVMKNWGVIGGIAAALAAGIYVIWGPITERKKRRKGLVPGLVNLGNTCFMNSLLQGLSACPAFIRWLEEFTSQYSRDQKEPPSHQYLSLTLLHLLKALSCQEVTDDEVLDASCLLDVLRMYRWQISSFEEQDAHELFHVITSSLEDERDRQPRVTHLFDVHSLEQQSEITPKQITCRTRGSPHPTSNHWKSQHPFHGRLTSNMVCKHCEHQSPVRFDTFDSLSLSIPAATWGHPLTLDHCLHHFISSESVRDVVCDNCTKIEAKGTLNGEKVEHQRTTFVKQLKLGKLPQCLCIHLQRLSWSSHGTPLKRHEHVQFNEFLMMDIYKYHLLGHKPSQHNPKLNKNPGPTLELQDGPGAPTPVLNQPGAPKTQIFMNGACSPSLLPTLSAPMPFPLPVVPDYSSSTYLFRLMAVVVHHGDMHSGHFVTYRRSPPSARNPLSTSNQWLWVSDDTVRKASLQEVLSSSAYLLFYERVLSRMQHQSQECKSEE
Experiment: In Vitro USP30 Biochemical Assay
Method: In vitro biochemical assay to establish the potency of compounds for USP30 inhibition: a 384-well plate assay using a fluorophore tagged substrate of USP30 was used for in vitro screening of compounds. Each compound was tested at 10 different concentrations (0.5 to 10,000 nM) in duplicate wells. […] Data were analyzed using Graph Pad Prism software with a four-parameter (floating slope) fit to log concentration data to determine IC50s.

## CC(C)(C)NS(=O)(=O)c1ccc(NC(=O)[C@H]2CCCN2C(=O)c2ccc(F)cc2)cc1 [US20250162989, Compound I-51]
  IC50: > 10 µM

From BindingDB's records for patent US20250162989 (Vincere Biosciences, 2025)
